Earlier results on one molecule are cited in patent publication US20160144033A1, “CONCENTRATED ACETAMINOPHEN SOLUTION” (Emphascience, Inc., priority 2014, published 2016).

For the series the following is noted: room temperature.

Regarding `CC(=O)Nc1ccc(O)cc1` [acetaminophen], the “solubility of acetaminophen in water” value was “ca. 13 mg per ml”.
